The record followed here is publication PMC9030254, “Target Hopping from Protein Kinases to PXR: Identification of Small-Molecule Protein Kinase Inhibitors as Selective Modulators of Pregnane X Receptor from TüKIC Library” (Cells, 2022).

Common to all, as to test: Kinase profiling
What all share (format): biochemical

The target of one test is T1, FGR (Homo sapiens, UniProt P09769).
T1 construct: purchased ProQinase (Freiburg, Germany)
Here is the method:
(§1) The analysis was performed by ProQinase (Freiburg, Germany).

For a further test, the target named is T2, PKCiota (Homo sapiens, UniProt P41743).
T2 construct: purchased ProQinase (Freiburg, Germany)
T2 sequence (P41743 1-596): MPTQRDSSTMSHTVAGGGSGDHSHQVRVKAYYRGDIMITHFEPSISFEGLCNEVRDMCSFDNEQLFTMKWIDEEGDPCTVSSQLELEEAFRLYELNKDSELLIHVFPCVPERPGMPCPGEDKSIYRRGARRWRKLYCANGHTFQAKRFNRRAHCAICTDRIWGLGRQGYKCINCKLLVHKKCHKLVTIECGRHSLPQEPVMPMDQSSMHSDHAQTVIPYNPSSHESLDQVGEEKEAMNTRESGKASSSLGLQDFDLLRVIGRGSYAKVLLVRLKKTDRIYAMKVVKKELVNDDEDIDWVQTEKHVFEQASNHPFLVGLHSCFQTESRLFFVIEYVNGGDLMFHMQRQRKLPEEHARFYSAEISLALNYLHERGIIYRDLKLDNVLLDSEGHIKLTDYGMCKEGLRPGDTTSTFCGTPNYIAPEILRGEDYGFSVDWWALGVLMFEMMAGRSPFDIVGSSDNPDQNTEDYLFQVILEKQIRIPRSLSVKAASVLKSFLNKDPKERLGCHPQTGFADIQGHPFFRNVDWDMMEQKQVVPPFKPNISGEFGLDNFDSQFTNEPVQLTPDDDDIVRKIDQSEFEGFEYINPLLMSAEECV
Here is the method: as §1

For another test, the target named is T3, CSK (Homo sapiens, UniProt P41240).
T3 construct: purchased ProQinase (Freiburg, Germany)
T3 sequence (P41240 whole entry): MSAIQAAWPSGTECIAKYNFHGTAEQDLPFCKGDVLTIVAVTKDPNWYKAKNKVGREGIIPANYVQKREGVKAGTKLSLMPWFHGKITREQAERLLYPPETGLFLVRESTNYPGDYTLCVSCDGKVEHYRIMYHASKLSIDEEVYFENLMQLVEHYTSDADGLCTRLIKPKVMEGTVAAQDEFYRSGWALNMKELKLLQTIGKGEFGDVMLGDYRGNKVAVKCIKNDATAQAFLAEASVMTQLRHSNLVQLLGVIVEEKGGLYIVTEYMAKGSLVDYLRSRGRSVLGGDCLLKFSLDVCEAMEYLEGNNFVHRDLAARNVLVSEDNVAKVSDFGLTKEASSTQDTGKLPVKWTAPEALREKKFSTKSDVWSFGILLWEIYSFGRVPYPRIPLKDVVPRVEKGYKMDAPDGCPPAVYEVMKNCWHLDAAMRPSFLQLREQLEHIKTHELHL
Here is the method: as §1

In the next test the target is T4, ALK (Homo sapiens, UniProt Q9UM73).
T4 construct: purchased ProQinase (Freiburg, Germany)
T4 sequence (Q9UM73 19-1620): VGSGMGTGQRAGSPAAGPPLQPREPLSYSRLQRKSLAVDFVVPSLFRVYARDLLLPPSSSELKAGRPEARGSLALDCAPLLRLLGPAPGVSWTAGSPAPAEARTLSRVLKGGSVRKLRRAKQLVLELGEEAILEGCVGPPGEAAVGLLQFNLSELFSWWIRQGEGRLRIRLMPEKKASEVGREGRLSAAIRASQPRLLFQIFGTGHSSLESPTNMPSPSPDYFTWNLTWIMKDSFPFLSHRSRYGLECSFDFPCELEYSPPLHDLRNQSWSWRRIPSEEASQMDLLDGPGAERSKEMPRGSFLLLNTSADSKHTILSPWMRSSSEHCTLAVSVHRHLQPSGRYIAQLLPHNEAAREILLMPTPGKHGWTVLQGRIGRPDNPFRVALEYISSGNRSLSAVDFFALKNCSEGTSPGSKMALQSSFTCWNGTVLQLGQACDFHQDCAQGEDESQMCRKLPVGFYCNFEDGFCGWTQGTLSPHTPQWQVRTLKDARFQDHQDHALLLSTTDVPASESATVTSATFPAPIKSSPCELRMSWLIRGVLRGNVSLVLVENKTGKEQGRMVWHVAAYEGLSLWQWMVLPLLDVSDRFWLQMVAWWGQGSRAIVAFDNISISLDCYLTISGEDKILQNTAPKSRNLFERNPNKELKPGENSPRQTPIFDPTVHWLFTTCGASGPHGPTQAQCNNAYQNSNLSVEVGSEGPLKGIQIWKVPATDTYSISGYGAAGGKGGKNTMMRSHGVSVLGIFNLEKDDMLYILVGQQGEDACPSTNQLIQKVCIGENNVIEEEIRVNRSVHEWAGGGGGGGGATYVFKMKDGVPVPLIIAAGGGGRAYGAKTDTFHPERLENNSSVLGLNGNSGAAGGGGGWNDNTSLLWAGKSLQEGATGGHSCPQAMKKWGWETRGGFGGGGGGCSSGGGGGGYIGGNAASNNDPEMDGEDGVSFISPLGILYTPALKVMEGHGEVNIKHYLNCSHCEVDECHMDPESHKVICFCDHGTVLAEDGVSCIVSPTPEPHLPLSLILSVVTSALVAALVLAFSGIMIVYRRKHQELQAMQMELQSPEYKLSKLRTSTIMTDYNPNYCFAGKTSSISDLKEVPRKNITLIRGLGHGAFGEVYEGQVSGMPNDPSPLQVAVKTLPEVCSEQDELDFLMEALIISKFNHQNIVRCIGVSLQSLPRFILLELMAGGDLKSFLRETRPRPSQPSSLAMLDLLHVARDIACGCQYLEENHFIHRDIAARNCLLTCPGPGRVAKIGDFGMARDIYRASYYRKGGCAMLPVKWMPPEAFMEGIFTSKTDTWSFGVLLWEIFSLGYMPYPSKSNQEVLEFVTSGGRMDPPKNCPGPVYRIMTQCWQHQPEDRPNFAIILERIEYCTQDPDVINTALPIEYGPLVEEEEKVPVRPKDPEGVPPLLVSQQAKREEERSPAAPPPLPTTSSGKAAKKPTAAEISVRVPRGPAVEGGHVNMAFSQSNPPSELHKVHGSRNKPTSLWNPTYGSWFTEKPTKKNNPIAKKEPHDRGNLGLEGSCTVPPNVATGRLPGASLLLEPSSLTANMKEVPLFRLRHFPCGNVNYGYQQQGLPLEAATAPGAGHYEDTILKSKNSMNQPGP
Here is the method:
as §1

A further test concerns the target T5, TLK1 (Homo sapiens, UniProt Q9UKI8).
T5 construct: purchased ProQinase (Freiburg, Germany)
T5 sequence (Q9UKI8 1-766): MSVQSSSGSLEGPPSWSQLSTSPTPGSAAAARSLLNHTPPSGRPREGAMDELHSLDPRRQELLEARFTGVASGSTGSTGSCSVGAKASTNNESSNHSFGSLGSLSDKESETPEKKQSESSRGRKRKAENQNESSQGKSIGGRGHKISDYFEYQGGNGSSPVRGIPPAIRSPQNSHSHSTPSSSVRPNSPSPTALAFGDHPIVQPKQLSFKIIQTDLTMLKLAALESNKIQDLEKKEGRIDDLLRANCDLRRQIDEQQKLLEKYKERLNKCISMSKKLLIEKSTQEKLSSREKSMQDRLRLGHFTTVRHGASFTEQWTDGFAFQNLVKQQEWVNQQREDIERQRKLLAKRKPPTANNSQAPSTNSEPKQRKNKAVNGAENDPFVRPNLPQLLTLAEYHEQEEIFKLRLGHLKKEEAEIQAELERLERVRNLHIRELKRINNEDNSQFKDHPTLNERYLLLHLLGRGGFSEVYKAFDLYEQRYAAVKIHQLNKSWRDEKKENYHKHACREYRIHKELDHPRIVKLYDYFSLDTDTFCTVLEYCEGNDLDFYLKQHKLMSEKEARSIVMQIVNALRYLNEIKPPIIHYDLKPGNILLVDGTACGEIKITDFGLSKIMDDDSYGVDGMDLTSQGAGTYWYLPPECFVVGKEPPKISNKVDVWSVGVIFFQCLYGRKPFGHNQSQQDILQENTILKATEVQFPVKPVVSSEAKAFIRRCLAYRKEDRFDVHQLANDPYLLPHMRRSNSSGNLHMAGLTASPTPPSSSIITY
Here is the method: as §1

The target in another test is T6, CK1alpha1 (Homo sapiens, UniProt P48729).
T6 construct: purchased ProQinase (Freiburg, Germany)
T6 sequence (P48729 whole entry): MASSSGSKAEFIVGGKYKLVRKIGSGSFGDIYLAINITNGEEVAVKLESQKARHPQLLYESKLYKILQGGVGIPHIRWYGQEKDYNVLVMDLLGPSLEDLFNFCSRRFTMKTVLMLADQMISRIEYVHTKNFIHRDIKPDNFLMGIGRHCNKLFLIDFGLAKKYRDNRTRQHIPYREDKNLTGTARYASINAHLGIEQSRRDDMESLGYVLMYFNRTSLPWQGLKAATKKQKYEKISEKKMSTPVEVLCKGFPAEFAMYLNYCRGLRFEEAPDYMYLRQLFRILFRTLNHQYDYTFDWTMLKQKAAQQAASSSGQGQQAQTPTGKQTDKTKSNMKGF
Here is the method: as §1

The target of a further test is T7, EPHA4 (Homo sapiens, UniProt P54764).
T7 construct: purchased ProQinase (Freiburg, Germany)
T7 sequence (P54764 20-986): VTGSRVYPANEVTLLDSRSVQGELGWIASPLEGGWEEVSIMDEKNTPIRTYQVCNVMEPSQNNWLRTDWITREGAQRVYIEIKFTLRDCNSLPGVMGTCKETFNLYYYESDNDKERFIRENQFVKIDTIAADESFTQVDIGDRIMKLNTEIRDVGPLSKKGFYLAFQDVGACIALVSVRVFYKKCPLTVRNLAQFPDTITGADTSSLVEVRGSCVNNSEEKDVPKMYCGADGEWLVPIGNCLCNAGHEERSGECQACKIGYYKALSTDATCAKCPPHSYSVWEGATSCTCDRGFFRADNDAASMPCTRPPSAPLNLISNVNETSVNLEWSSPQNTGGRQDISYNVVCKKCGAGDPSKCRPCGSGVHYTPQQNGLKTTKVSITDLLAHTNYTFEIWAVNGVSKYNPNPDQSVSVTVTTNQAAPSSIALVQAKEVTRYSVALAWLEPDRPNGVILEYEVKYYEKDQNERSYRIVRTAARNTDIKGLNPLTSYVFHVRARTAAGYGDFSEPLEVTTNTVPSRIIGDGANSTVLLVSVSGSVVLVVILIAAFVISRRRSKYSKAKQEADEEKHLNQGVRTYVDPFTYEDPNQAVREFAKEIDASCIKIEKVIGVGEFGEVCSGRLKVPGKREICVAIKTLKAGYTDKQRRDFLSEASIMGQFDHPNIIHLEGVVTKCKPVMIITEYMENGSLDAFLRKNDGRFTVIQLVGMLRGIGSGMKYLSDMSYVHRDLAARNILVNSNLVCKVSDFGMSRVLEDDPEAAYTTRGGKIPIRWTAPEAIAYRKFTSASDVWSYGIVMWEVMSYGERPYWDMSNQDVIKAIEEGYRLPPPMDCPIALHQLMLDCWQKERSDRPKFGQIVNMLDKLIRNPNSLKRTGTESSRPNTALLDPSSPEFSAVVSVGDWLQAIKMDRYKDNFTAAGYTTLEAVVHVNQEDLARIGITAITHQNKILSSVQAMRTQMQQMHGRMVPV
Here is the method: as §1

A further test addresses T8, FRK (Homo sapiens, UniProt P42685).
T8 construct: purchased ProQinase (Freiburg, Germany)
Here is the method:
as §1

A further test has as its target T9, DYRK3 (Homo sapiens, UniProt O43781).
T9 construct: purchased ProQinase (Freiburg, Germany)
T9 sequence (O43781 1-588): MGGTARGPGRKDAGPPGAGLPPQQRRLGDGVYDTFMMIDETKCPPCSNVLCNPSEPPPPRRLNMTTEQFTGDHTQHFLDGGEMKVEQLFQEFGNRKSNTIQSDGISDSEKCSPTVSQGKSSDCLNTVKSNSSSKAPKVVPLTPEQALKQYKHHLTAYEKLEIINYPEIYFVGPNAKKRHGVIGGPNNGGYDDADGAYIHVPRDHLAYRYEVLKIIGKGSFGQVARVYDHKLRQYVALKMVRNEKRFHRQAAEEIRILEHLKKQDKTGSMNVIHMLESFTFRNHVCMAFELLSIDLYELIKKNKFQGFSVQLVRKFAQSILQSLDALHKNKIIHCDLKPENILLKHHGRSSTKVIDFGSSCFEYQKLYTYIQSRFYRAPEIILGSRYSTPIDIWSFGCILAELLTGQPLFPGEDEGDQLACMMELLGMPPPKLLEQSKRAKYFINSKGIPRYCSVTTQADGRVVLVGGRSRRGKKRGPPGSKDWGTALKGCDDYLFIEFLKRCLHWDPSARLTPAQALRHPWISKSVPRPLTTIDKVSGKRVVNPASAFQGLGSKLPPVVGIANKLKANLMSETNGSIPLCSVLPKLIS
Here is the method:
as §1

The next test concerns the target T10, GRK6 (Homo sapiens, UniProt P43250).
T10 construct: purchased ProQinase (Freiburg, Germany)
Here is the method: as §1

Structures are written as SMILES.

T8 sequence (P42685 whole entry): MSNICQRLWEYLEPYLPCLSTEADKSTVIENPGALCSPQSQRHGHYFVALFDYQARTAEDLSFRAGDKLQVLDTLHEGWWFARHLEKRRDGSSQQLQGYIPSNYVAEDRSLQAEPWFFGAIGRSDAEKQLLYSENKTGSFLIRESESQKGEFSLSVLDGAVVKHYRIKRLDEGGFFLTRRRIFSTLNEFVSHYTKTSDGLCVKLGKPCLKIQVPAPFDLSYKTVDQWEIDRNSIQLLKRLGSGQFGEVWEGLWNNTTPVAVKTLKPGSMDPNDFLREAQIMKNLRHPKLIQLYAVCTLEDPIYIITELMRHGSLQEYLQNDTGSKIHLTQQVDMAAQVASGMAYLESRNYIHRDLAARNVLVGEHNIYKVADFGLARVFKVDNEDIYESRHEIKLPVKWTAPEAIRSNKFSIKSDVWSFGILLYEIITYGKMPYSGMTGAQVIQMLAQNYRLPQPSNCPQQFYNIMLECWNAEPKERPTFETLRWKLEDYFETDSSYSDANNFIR
T10 sequence (P43250 whole entry): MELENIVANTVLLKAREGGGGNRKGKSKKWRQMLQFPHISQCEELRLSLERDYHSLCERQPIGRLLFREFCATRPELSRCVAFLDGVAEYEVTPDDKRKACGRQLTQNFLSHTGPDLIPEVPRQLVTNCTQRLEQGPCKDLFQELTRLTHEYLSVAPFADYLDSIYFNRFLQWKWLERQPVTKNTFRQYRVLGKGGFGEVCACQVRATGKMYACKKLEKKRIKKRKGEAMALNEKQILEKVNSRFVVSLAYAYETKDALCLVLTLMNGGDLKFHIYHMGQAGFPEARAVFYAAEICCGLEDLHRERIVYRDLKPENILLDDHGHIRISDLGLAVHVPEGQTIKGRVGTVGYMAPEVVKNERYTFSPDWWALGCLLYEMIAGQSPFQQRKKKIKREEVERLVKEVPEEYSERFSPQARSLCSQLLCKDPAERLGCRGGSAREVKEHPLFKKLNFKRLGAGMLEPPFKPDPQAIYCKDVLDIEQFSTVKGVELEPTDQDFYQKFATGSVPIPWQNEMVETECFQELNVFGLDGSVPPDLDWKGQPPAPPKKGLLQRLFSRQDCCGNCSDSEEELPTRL
T1 sequence (P09769 whole entry): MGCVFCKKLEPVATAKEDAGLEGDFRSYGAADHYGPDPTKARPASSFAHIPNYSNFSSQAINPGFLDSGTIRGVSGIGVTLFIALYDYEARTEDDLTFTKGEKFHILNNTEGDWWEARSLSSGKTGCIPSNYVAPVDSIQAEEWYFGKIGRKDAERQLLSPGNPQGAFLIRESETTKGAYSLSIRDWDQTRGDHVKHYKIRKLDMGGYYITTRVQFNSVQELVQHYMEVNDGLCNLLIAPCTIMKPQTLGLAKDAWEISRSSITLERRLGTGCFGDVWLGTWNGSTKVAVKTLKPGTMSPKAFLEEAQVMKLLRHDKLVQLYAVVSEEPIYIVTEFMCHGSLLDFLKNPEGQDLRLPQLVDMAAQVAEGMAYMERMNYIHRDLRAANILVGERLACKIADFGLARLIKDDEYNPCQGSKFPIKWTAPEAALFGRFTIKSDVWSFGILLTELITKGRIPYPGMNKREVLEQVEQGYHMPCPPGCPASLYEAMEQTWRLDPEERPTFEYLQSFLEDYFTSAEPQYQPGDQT

Regarding `O=C(Cc1ccccc1)Nc1ccc(F)c(Nc2ccc3c(c2)CCCCC3=O)c1` [Compound 100], the Residual activity was 82 % of control at FGR (1.0E-05 M); 108 % of control at FGR (1.0E-06 M); 71 % of control at PKCiota (1.0E-05 M); 94 % of control on PKCiota (1.0E-06 M); 96 % of control on CSK (1.0E-05 M); 106 % of control at CSK (1.0E-06 M). Besides, the Residual activity is listed as 72 % of control at ALK (1.0E-05 M); 86 % of control at ALK (1.0E-06 M); 131 % of control at TLK1 (1.0E-05 M); 125 % of control on TLK1 (1.0E-06 M); 108 % of control at CK1alpha1 (1.0E-05 M); 112 % of control on CK1alpha1 (1.0E-06 M). In addition, the Residual activity is recorded as 88 % of control on EPHA4 (1.0E-05 M); 97 % of control on EPHA4 (1.0E-06 M); 104 % of control at FRK (1.0E-05 M); 107 % of control on FRK (1.0E-06 M); 104 % of control at DYRK3 (1.0E-05 M); 98 % of control on DYRK3 (1.0E-06 M). In addition, the Residual activity at GRK6 (1.0E-05 M) is reported as 114 % of control; on GRK6 (1.0E-06 M), 117 % of control.

For the compound `O=C(Nc1ccc(F)c(Nc2ccc3c(c2)CCCCC3=O)c1)c1cccc(F)c1` [Compound 109], the Residual activity on FGR (1.0E-05 M) is 84 % of control; at FGR (1.0E-06 M), 105 % of control; at PKCiota (1.0E-05 M), 77 % of control; at PKCiota (1.0E-06 M), 82 % of control; on CSK (1.0E-05 M) it was 109 % of control; on CSK (1.0E-06 M), 112 % of control. Further, the Residual activity on ALK (1.0E-05 M) was 92 % of control; at ALK (1.0E-06 M) it was 95 % of control; at TLK1 (1.0E-05 M), 114 % of control; at TLK1 (1.0E-06 M), 103 % of control; on CK1alpha1 (1.0E-05 M), 102 % of control; on CK1alpha1 (1.0E-06 M), 108 % of control. Further, the Residual activity is 90 % of control on EPHA4 (1.0E-05 M); 86 % of control on EPHA4 (1.0E-06 M); 102 % of control on FRK (1.0E-05 M); 107 % of control at FRK (1.0E-06 M); 88 % of control on DYRK3 (1.0E-05 M); 96 % of control at DYRK3 (1.0E-06 M). Besides, the Residual activity is on record as 121 % of control on GRK6 (1.0E-05 M) and 113 % of control at GRK6 (1.0E-06 M).
